From publication PMC7893915, “Assessing cross-resistance within the pyrethroids in terms of their interactions with key cytochrome P450 enzymes and resistance in vector populations” (Parasites & Vectors, 2021)
Like-named read-outs stand apart in the source and are kept apart here.

How the values were obtained:
[1] = test system: An. funestus strain, FUMOZ-R; design: method as in PMID 26930058; details: strain with upregulated P450 levels without any target-site mutations; ref [47]; cited from earlier work
[2] = test system: CYP6M2, CYP6P3 and CYP6P9a; assay: Pyrethroid metabolism (insecticide depletion), across CYP6M2, CYP6P3 and CYP6P9a; assay type: in vitro ADME, Anopheles gambiae and An. funestus; details: mean ± SD across CYP6M2, CYP6P3, CYP6P9a
Source text: (§1) In this study, the half maximal inhibitory concentration (IC50), which provides a value for inhibition of each P450 by each pyrethroid (also referred to as ‘binding affinity’), and the percentage depletion, which gives a value for metabolism of each pyrethroid by each P450 (also referred to as vulnerability to metabolic attack), were both included as parameters to establish a P450s structural activity relationship model. This model was used to understand both the chemistry of the pyrethroids and the interaction with mosquito P450s that function as monooxygenases in metabolic resistance, to predict cross-resistance liabilities in vivo. […] A low percentage depletion indicates low metabolism of the pyrethroid, which means that it may be less vulnerable to resistance mediated by P450s.
The values for percentage depletion (metabolism) of each pyrethroid by three of the enzymes CYP6M2, CYP6P3 and CYP6P9a, which were expressed in a single plasmid construct, were also extracted from the same sources and used for the comparative analysis.

CYP6P3 [3] = details: Incubation time 2h; mean ± SD; ref [38], [41]; cited from earlier work
CYP6P9a [4] = details: Incubation time 2h; mean ± SD; ref [38], [41]; cited from earlier work
CYP6M2 = details: Incubation time 2h; mean ± SD; ref [38], [41]; cited from earlier work
Anopheles arabiensis = details: F0, larval collection, Sudan, WHO Bioassay 1998, ref Abdalla H et al. Parasites Vectors. 2014;7:213, cited from earlier work
CYP6P2 = details: read-out: IC50 CYP6P2; inhibition of diethoxyfluorescein metabolism; footnote b; ref Yunta et al. 2019[10]; cited from earlier work
CYP6P9a [5] = details: read-out: IC50 CYP6P9a; inhibition of diethoxyfluorescein metabolism; footnote b; ref Yunta et al. 2019[10]; cited from earlier work
CYP9J5 = details: read-out: IC50 CYP9J5; inhibition of diethoxyfluorescein metabolism; footnote b; ref Yunta et al. 2019[10]; cited from earlier work
CYP6P3 [6] = details: read-out: IC50 CYP6P3; inhibition of diethoxyfluorescein metabolism; footnote b; ref Yunta et al. 2019[10]; cited from earlier work
CYP6Z2 = molecular target: T1, CYP6Z2 (Anopheles gambiae, UniProt Q7PNB5); assay: Inhibition screening of pyrethroids, diethoxyfluorescein, CYP6Z2; assay type: biochemical
T1 sequence (Q7PNB5 1-492): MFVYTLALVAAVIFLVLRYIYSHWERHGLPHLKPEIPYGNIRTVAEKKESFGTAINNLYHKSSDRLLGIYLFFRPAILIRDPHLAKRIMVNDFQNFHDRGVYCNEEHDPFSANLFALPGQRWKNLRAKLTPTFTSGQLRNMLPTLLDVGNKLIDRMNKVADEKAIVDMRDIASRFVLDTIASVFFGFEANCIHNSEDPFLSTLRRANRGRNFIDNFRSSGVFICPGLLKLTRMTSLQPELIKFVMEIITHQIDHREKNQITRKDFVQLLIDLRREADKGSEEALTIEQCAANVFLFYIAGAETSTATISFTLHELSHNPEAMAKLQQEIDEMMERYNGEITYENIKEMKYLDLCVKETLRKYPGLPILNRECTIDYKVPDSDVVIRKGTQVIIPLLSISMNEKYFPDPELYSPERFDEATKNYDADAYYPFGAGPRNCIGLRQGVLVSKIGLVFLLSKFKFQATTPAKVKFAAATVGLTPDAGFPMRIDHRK
T1 sequence (Q86QH5 1-679 partner): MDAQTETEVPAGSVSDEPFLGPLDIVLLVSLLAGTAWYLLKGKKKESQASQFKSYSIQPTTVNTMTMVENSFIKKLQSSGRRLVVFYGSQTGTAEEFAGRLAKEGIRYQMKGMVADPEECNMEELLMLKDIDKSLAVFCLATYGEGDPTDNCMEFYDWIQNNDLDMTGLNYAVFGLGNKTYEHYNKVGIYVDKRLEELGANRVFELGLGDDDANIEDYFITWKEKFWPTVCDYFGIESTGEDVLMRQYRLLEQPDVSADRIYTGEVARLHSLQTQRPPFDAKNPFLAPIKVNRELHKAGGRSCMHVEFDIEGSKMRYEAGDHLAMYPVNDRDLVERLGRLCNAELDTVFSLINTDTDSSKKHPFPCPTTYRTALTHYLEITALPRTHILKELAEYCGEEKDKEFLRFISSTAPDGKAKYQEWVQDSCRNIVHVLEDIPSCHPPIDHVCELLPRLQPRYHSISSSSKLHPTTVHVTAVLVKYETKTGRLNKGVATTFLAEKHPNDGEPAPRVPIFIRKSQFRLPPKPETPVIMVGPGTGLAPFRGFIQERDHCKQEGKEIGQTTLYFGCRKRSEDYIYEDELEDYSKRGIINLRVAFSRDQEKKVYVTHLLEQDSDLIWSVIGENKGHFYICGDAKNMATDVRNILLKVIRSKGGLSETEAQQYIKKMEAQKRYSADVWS

[7] = test system: P450 panel (CYP6M2, CYP6P3, CYP6P9a, CYP6P2, CYP9J5, CYP6Z3, CYP6Z2); assay: P450 inhibition, whole P450 panel (mean across P450s); assay type: biochemical, Anopheles gambiae and An. funestus; details: Anopheles gambiae and Anopheles funestus
Source text: as §1, with “Cytochrome P450 inhibition assays using fluorogenic probe substrates have become commonplace in drug discovery screening cascades and are a rapid method of screening for insecticide interactions with mosquito P450s to predict insecticide binding, metabolism, cross-resistance and synergism. In” for “In”
(§2) In addition, inhibition activity data for these pyrethroids exposed to CYP6Z3 from the An. gambiae Kisumu strain were also generated (Additional file 1).

CYP6Z3 = molecular target: T2, CYP6Z3 (Anopheles gambiae, UniProt Q86LT6, H411Y/S209G/W396L); assay: Inhibition screening of pyrethroids, diethoxyfluorescein, CYP6Z3; assay type: biochemical
T2 sequence (Q86LT6 1-492 S209G/W396L/H411Y): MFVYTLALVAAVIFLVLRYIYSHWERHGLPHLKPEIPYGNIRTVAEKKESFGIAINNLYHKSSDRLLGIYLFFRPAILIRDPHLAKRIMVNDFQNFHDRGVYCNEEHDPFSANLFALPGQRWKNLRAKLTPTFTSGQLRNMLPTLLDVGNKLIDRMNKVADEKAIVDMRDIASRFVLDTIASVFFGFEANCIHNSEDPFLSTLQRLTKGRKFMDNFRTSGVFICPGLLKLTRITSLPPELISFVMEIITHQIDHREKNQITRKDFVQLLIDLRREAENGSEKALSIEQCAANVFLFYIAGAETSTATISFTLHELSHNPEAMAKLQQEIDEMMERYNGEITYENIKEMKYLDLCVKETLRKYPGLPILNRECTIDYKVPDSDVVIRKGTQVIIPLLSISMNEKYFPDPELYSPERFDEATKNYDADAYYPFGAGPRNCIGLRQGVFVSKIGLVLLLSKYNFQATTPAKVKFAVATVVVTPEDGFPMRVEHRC
T2 sequence (Q86QH5 1-679 partner): T1 sequence (Q86QH5 1-679 partner)
Source text: as §1, with “Cytochrome P450 inhibition assays using fluorogenic probe substrates have become commonplace in drug discovery screening cascades and are a rapid method of screening for insecticide interactions with mosquito P450s to predict insecticide binding, metabolism, cross-resistance and synergism. In” for “In”
as §2
1. Preparation of An. gambiae CYP6Z3 and cloning
Total RNA was extracted with Arcturus PicoPure Kit (Applied Biosystems, USA) from ten adult An. gambiae mosquitoes from the Kisumu strain [1]. Complementary DNA was prepared using Superscript III (Invitrogen) with an oligo (dT)20 primer and used as a template for amplifying full -length AgCyp6z3 with KOD DNA polymerase (Merk Chemicals) . The gene-specific primers used in these high -fidelity PCRs (Table S1) were designed according to the reference An. gambiae PEST CYP6Z3 genome sequence (Accession number AY193727) The PCR product was ligated into pGEM T-easy vector (Promega) and sequenced on both strands. Consistent with the high frequency of polymorphism in An. gambiae P450s [2](Martin Nature Ref) there were 36 single nucleotide polymorphism (SNPs) compared with the reference sequence, of which three produced amino acid changes, S209G, W396L, and H411Y. For expression, the ompA leader sequence (ompA) was engineered onto the amino - terminus of the AgCyp6z3 gene to direct the P450 into the E. coli […] during expression as previously described. The ompA-leader was fused to AgCyp6z3 cDNA in frame with AgCyp6z3 initiation codon by fusion PCR using High fidelity Phusion polymerase (Scientific). The ompA AgCyp6z3 fusion was flanked at the 5′ and 3′ ends with NdeI and EcoR1, respectively for ligation into NdeI/EcoRI linearised pB13 (pCWori+).
Table S1. Primers used for amplification of CYP6Z3 and in vitro functional characterisation […]
ompA+2 Forward […]
ompA+2 CYP6Z3 fusion […]
2. Preparation of membranes expressing P450 and AgCPR
To express functional P450, AgCyp6z3 cloned into pB13 plasmid was co-transformed into E. coli JM109 cells with An. gambiae NADPH-cytochrome P450 reductase (AgCPR-pACYC). The P450 and the AgCPR were previously fused with ompA and pelB leader sequences respectively to direct the expressed proteins to the inner bacterial periplasm in order to form functional monooxygenase complex. For P450 production, 200 mL E. coli cultures in Terrific Broth were incubated at 21°C with shaking at 120 RPM for 18–24 h after induction with 1 mM IPTG. Following expression, E. coli membranes containing CYP6Z3 were isolated and P450 and AgCPR content measured as previously described. Samples were stored in aliquots of 100 µL at −80°C. An. gambiae cytochrome b5 was prepared as described previously to supplement enzyme reactions at an 8:1 M ratio, b5: P450 [4].
3. Inhibition screening of pyrethroids.
Inhibition screening of pyrethroid inhibitors and IC50 calculations carried out according Yunta et al. […]

Gambiae Complex = details: ID 100156; F0, larval collection, 5/2009-4/2010, Chano, Ethiopia; WHO Bioassay 1998; ref Massebo F et al. Parasites Vectors. 2013;6; cited from earlier work

Row | Compound | effectiveness with or without piperonyl butoxide (PBO), in words [1] | mortality (Anopheles arabiensis; 10/2009-11/2009, El Managil) | mortality (Anopheles arabiensis; 10/2009-11/2009, Rufaa) | mortality (Anopheles arabiensis; 10/2009-11/2009, Wad El Hadad) | mortality (Anopheles arabiensis; 10/2010-11/2010, Wad El Hadad) | mortality (Anopheles arabiensis; 10/2010-11/2010, Wad Medani) | also measured
1 | CC1(C)C(C=C(Cl)Cl)C1C(=O)OC(C#N)c1cccc(Oc2ccccc2)c1 (centres unmarked) [Cypermethrin] | only effective when partnered with PBO | – | – | – | – | – | % Insecticide depletion Mean across P450s [2]: 74.9 ± 33.3%; % Insecticide depletion CYP6P3 (CYP6P3 [3]): 98.4 ± 0.1%; % Insecticide depletion CYP6P9a (CYP6P9a [4]): 89.5 ± 2.7%; % Insecticide depletion CYP6M2 (CYP6M2): 36.8 ± 1.8%
2 | Clc1ccc(C(c2ccc(Cl)cc2)C(Cl)(Cl)Cl)cc1 [DDT, dichlorodiphenyltrichloroethane] | – | 93 | 58 | 74 | 69 | 70 | –
3 | CNC(=O)Oc1cccc2c1OC(C)(C)O2 [bend, bendiocarb] | – | 100 | 100 | 100 | 100 | 100 | –
4 | COP(=S)(OC)Oc1ccc([N+](=O)[O-])c(C)c1 [feni, fenitrothion] | – | 100 | 100 | 100 | 100 | 100 | –
5 | CC1(C)C(C=C(Cl)Cl)C1C(=O)OC(C#N)c1ccc(F)c(Oc2ccccc2)c1 (centres unmarked) [ß-cyfluthrin] | only effective when partnered with PBO | – | – | – | – | – | –
6 | CC1(C)C(C=C(Cl)Cl)C1C(=O)OC(C#N)c1cccc(Oc2ccccc2)c1 (stereo not drawn) [⍺-cypermethrin, α-cypermethrin] | – | – | – | – | – | – | IC50 (CYP6P2): 9.8 µM; IC50 (CYP6P9a [5]): 4.2 µM; IC50 (CYP9J5): 13.5 µM; IC50 (CYP6P3 [6]): 2.6 µM; IC50 (CYP6Z2): 8.6 µM; IC50 [7]: 6.4 µM; IC50 (CYP6Z3): 4.4 µM; mortality (Gambiae Complex): 50
